# Key:
# [1] = test system: A/California/04/2009 (H1N1); assay type: cell-based, influenza
# [2] = test system: A/Anhui/01/2013 (H7N9); assay type: cell-based, influenza; conditions: A549 cells, 10 μM for 1 hour before infection, 1 MOI H7N9, 24 hours post infection, titrated on MDCK cells
# [3] = test system: A549 cells
# [4] = test system: influenza virus; conditions: in vivo; cited from earlier work
# [5] = test system: influenza virus; conditions: in vitro; cited from earlier work
# [6] = test system: A/Brisbane/10/2007 (H3N2); assay type: cell-based, influenza
smiles,measurement,setting,value
O=C(NCCN1CCC2(CC1)C(=O)NCN2c1cccc(F)c1)c1ccc2ccccc2c1 [compound 3],viral reproduction (TCID50),[1],significantly lowered viral reproduction
same,viral reproduction (TCID50),[2],significantly lowered viral reproduction
same,cellular toxicity in microscopic image,[3],significant cellular toxicity
same,survival,[4],increased survival
same,viral titer,[4],reduced viral titer
same,viral entry,[5],delayed viral entry
same,viral titers,[5],reduced viral titers
same,viral reproduction (TCID50),[6],significantly lowered viral reproduction

# Reference: article PMC4535312 (ChemMedChem, 2014)
